The structures appear in SMILES notation.

The test system of series [1] is rats. In words: Acute and tonic pain: healthy rats, paw pressure test (Example 13). Particulars: Compound I-1 p.o. 10 mg/kg, 120 minutes after treatment.
Method: Paw Pressure Test. Static mechanical hyperalgesia is measured. This test requires the application of an increasing pressure on the hind paws between a flat surface and a blunt pointer. To evaluate the analgesic action of a compound, one hind paw of the animal was inflamed by an injection or injured by ligation, while the other hind paw was not injured or inflamed. The apparatus exerted a steadily increasing force on the hind paws. The reaction threshold was determined as the pressure (g) required to elicit paw withdrawal and/or vocalization. The animals were gently handled by the experimenter and static mechanical hyperalgesia were assessed two times for both hind paws.
Testing: 120 minutes after treatment. N=4/model/test. Results are expressed for each group as a percentage of activity calculated from the mean value of the vehicle-treated animals and compared to naïve animals, control paw, or cut-off value, depending on the test.
Series [2] in a line: Dog cerebrospinal fluid (CSF) pharmacokinetic properties (Example 5). It counts as in vivo. Particulars: male, beagle, 1 mg/kg PO. As for the experimental part:
Protocol PK in dogs was determined following oral dosing. A group of 4 male beagle dogs were used and the dogs were dosed with 1 mg/kg of a compound formulated as a suspension in 1% HPMC E5, 0.2% Tween 80, and 0.5% MC in water. PO doses were administered by oral gavage in a gelatin capsule and delivered to the stomach using a gavage tube. Following oral dosage administration, the gavage tube was flushed with approximately 10 mL of water to ensure complete delivery of the full dose.
Plasma and CSF samples were collected as follows: samples of CSF and blood were collected at 1, 2, 4 and 8 hours post PO dosing. CSF samples (0.05 mL) were collected from the lumbosacral region (L4/5) via direct needle puncture at the appropriate time points. Blood samples (0.25 mL) were collected via cephalic vein. These samples were kept on ice until processed for plasma. Blood samples were centrifuged at 3200 rpm for 5 minutes at approximately 5° C. within 1 hour of collection. Plasma was directly transferred to a 96-well plate tube (0.125 mL). Plug caps were placed on the tubes and the tubes frozen at approximately −70° C. and stored until analysis. Plasma was collected and analyzed for the presence of a compound.
Quantitation of Compounds. The compound of the invention and the internal standard were extracted from plasma and CSF by precipitation. Samples were analyzed using liquid chromatography (LC) with tandem mass spectrometric detection (MS/MS) using electrospray ionization. The standard curve range was from 1 to 1000 ng/mL. Results of the compounds described herein in this assay are illustrated in Tables 5a and 5b below (1 mg/kg dose).
Kp,uu is defined as the concentration ratio of unbound drug in CSF to unbound drug in plasma. Unbound drug in plasma (or free plasma concentration) is calculated by multiplying the total plasma concentration by the unbound fraction as determined by plasma protein binding. The CSF concentration is then divided by the free plasma concentration to determine the Kp,uu. (See e.g., Di et al., J. Med. Chem 56, 2-12 (2013))

`Fc1ccccc1Cc1nc(-c2nc(C(F)(F)F)n[nH]2)cn2ccnc12` [Compound I-1, 8-(2-fluorobenzyl)-6-(3-(trifluoromethyl)-1H-1,2,4-triazol-5-yl)imidazo[1,2-a]pyrazine]: the “% of activity vs. vehicle” value in series [1] was −6%. This compound also yielded a Kp uu at 1 h in series [2] (CSF / unbound plasma, @ 1 h) of 0.7. For the same compound, in series [2] (CSF / unbound plasma, @ 2 h), the Kp uu at 2 h was found to be 0.7. This compound also came in with a Kp uu at 4 h in series [2] (CSF / unbound plasma, @ 4 h) of 0.7. The Kp uu at 8 h in series [2] (CSF / unbound plasma, @ 8 h) is 0.4. Also, the concentration at 1 h in series [2] (CSF, @ 1 h, read-out: CSF Conc.) is 34 nM. The concentration at 2 h in series [2] (CSF, @ 2 h, read-out: CSF Conc.) was determined as 34 nM. Also, the concentration at 4 h in series [2] (CSF, @ 4 h, read-out: CSF Conc.) was 19 nM. Also, in series [2] (CSF, @ 8 h, read-out: CSF Conc.), the concentration at 8 h was 2.4 nM.
